IC50 data for 29 compounds are collected here from patent publication US10851089B2, “Matrix metalloproteinase (MMP) inhibitors and methods of use thereof” (Foresee Pharmaceuticals Co., Ltd., priority 2018, dated 2020).

What is called IC50 is the midpoint of a concentration-inhibition curve.

Where two headings read alike, the source gives them in different places.

Assay type in all cases: biochemical
For assay [1], the target named is recombinant human MMP-12 catalytic domain (Homo sapiens (Human), UniProt P39900). Nature of the assay: MMP-12 inhibitory assay (fluorogenic substrate cleavage). The procedure:
(§1) The inhibitory effect of compounds on the rate of cleaving fluorogenic MMP substrate (Enzo, BML-P128) by recombinant human MMP-12 catalytic domain (Enzo, BML-SE138) was carried out by methods known in the art. Briefly, to each well of a 96-well black opaque plate, all the reagents were sequentially added by pipetting, and the final reaction contained 4 nM of recombinant human MMP-12 catalytic domain, 4 μM of fluorogenic MMP substrate, and various concentrations (0.15 nM to 10,000 nM) of tested compound dilutions in HEPES buffer (pH 7.5) containing 10 mM of CaCl2, 0.01% Brij® 35 (polyoxyethylene (23) lauryl ether), and 0.1 mg/ml of BSA.
(§2) The enzyme and compounds were pre-incubated on a shaker to mix in wells. After an hour of mixing, fluorogenic substrate was added to each well. Reaction without enzyme was used as a blank control in the plate. The plate was then fed into a plate reader to measure fluorescence intensity at Excitation/Emission wavelengths of 340 nm/440 nm every 10 mins for at least 1 hour at 37° C. The IC50 of each compound in MMP-12 inhibition was determined by using a readout obtained at time point 30 minutes.

A further assay has as its target recombinant human MMP-1 (Homo sapiens (Human), UniProt P03956). Description: MMP selectivity assay MMP-1. The procedure: as §1, §2
(§3) The MMP selectivity assay was performed by using other recombinant human MMPs, including MMP-1, MMP-2, MMP-3, MMP-7, MMP-8, MMP-9, MMP-10, MMP-13, and MMP-14. The IC50 of the compounds for the other recombinant human MMPs was determined as described above in Example 1, and are shown in Table 2.

The next assay has as its target recombinant human MMP-2 (Homo sapiens (Human), UniProt P08253). Description: MMP selectivity assay MMP-2. On the procedure:
as §1, §2, §3

The next assay concerns the target recombinant human MMP-3 (Homo sapiens (Human), UniProt P08254). Description: MMP selectivity assay MMP-3. On the procedure: as §1, §2, §3
A further assay concerns the target recombinant human MMP-7 (Homo sapiens (Human), UniProt P09237). Nature of the assay: MMP selectivity assay MMP-7. The procedure:
as §1, §2, §3

For another assay, the target named is recombinant human MMP-8 (Homo sapiens (Human), UniProt P22894). Nature of the assay: MMP selectivity assay MMP-8. On the procedure:
as §1, §2, §3

The target of a further assay is recombinant human MMP-9 (Homo sapiens (Human), UniProt P14780). Nature of the assay: MMP selectivity assay MMP-9. The procedure: as §1, §2, §3
Sequence of recombinant human MMP-9 (P14780 94-707): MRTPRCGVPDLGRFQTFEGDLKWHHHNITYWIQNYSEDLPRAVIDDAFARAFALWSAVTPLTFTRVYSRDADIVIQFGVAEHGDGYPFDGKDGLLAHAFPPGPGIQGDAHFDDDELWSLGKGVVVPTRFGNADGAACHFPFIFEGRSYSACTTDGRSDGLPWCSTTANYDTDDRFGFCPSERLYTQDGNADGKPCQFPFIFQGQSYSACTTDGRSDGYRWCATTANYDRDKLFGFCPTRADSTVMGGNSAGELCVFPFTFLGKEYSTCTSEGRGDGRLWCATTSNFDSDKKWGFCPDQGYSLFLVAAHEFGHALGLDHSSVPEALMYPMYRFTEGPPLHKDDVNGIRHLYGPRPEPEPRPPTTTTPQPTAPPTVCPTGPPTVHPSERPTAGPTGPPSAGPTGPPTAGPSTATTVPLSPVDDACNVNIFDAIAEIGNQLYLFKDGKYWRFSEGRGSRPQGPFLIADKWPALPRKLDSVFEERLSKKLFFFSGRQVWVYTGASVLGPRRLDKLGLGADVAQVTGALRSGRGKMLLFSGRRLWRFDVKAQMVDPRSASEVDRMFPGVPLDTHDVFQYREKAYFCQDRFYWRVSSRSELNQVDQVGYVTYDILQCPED
Another assay concerns the target recombinant human MMP-10 (Homo sapiens (Human), UniProt P09238). Nature of the assay: MMP selectivity assay MMP-10. The procedure:
as §1, §2, §3

A further assay concerns the target recombinant human MMP-13 (Homo sapiens (Human), UniProt P45452). Description: MMP selectivity assay MMP-13. The procedure: as §1, §2, §3
For another assay, the target named is recombinant human MMP-14 (Homo sapiens (Human), UniProt P50281). Nature of the assay: MMP selectivity assay MMP-14. The procedure: as §1, §2, §3
Where [2] appears, read: readout at 30 minutes, read-out: MMP-12 IC50.
Setting [3] is: Table 2 selectivity profile, read-out: MMP-12 activity (IC50).

Sequence of recombinant human MMP-10 (P09238 99-476): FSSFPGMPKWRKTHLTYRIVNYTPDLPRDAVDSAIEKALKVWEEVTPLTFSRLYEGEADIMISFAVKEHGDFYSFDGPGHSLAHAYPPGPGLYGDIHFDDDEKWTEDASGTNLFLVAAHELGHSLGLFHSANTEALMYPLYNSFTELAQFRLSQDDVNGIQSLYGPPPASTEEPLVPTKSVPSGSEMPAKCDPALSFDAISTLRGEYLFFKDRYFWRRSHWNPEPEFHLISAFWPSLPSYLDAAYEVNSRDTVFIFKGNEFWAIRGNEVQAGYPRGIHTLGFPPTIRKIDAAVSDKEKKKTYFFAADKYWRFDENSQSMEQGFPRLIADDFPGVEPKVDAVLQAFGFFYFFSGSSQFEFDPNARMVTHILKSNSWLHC
Sequence of recombinant human MMP-12 catalytic domain (P39900 106-263): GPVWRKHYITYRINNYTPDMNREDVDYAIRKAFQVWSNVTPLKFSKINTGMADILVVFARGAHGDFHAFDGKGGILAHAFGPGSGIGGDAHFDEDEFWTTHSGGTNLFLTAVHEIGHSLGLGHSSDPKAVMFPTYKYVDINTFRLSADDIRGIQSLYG
Sequence of recombinant human MMP-8 (P22894 101-467): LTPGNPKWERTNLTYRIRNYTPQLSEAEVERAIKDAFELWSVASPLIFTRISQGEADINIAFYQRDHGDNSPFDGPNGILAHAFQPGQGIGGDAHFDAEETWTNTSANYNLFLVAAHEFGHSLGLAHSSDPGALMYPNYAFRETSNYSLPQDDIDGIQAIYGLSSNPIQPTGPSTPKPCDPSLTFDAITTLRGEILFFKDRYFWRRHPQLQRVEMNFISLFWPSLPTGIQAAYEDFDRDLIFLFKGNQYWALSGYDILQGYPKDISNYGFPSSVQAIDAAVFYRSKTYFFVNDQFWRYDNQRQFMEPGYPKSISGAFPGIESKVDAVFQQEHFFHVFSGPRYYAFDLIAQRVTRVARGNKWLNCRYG
Sequence of recombinant human MMP-1 (P03956 100-469): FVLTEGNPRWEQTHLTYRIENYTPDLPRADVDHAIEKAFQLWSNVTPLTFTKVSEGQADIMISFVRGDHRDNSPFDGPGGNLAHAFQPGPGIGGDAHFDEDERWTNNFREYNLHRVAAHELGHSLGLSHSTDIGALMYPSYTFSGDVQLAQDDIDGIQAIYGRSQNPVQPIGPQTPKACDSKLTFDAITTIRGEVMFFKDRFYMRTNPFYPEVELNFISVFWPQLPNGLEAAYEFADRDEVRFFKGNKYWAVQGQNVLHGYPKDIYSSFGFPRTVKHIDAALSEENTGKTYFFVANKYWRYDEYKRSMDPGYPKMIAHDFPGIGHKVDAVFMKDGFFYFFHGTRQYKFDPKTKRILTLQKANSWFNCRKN
Sequence of recombinant human MMP-2 (P08253 110-660): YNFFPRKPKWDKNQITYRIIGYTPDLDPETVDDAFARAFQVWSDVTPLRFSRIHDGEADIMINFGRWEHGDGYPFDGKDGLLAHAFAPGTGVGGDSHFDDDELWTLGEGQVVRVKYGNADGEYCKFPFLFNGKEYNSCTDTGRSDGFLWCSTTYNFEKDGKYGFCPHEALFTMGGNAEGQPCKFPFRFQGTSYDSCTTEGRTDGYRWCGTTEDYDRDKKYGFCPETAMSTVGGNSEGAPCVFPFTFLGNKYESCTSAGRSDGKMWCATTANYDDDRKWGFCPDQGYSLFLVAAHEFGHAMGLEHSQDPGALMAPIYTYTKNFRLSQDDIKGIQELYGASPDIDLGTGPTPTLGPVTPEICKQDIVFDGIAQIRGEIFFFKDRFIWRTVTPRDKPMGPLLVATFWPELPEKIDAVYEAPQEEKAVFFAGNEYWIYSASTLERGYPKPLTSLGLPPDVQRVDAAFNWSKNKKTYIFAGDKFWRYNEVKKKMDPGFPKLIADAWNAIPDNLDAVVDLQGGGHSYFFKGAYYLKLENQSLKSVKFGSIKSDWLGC
Sequence of recombinant human MMP-7 (P09237 95-267): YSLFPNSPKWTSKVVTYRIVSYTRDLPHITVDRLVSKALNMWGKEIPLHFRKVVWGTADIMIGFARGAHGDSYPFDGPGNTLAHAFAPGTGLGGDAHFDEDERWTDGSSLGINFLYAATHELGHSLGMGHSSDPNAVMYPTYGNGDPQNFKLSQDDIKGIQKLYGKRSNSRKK
Sequence of recombinant human MMP-3 (P08254 100-477): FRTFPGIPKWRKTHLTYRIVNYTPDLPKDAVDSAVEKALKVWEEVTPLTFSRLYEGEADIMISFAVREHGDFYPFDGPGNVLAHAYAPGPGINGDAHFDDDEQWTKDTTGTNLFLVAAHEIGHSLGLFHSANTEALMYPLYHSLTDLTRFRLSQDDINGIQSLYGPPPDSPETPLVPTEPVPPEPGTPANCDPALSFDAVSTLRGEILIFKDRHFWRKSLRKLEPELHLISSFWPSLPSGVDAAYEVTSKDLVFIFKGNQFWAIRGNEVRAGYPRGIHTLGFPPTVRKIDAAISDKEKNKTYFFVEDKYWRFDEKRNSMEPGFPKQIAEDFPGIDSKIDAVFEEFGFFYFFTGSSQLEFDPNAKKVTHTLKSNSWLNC

With `Cc1ccnc(COc2ccc(Sc3ccoc3C3NC(=O)NC3=O)cc2)c1` (stereo not shown) [FC-1], in [1] (setting [2]), the IC50 is 0.1 to 1 µM.

Regarding `Cc1cccc(COc2ccc(Sc3ccoc3C3NC(=O)NC3=O)cc2)n1` (stereo not shown) [FC-2], the IC50 in [1] (setting [2]) is 0.01 to 0.1 µM.

As to `Cc1cncc(COc2ccc(Sc3ccoc3C3NC(=O)NC3=O)cc2)c1` (stereo not shown) [FC-3], the IC50 in assay [1] (setting [2]) was in the range of 0.01 to 0.1 µM.

In the case of `Cc1cccc(COc2ccc(Sc3ccoc3C3NC(=O)NC3=O)cc2)[n+]1O` (stereo not shown) [FC-5], the IC50 in assay [1] (setting [2]) is over 1 µM.

As for `Cc1cc(COc2ccc(Sc3ccoc3C3NC(=O)NC3=O)cc2)c[n+]([O-])c1` (stereo not shown) [FC-6], the IC50 in [1] (setting [2]) lay within 0.1 to 1 µM.

For the compound `Cc1cc(COc2ccc(Sc3ccoc3C3NC(=O)NC3=O)cc2)cc[n+]1[O-]` (stereo not shown) [FC-7], the IC50 in [1] (setting [2]) was in the range of 0.01 to 0.1 µM.

In the case of `Cc1cccc(COc2ccc(Sc3ccoc3C3(C)NC(=O)NC3=O)cc2)c1` (stereo not shown) [FC-8], the IC50 in assay [1] (setting [2]) is under 0.01 µM.

Take `CCC1(c2occc2Sc2ccc(OCc3cccc(C)c3)cc2)NC(=O)NC1=O` (stereo not shown) [FC-9]: the IC50 in [1] (setting [2]) was in the range of 0.01 to 0.1 µM.

For the compound `Cc1cccc(COc2ccc(Sc3ccoc3C3(CC(C)C)NC(=O)NC3=O)cc2)c1` (stereo not shown) [FC-10], the IC50 in assay [1] (setting [3]) was under 0.01 µM; in assay [1] (setting [2]), under 0.01 µM; at recombinant human MMP-1, over 10 µM; on recombinant human MMP-2 it was 1 to 10 µM; on recombinant human MMP-3 it was 0.1 to 1 µM; at recombinant human MMP-7, over 10 µM. Moreover, the IC50 at recombinant human MMP-8, at recombinant human MMP-9, at recombinant human MMP-10, at recombinant human MMP-13 and at recombinant human MMP-14 was 1 to 10 µM in each case.

Regarding `CCCC1(c2occc2Sc2ccc(OCc3cccc(C)c3)cc2)NC(=O)NC1=O` (stereo not shown) [FC-11], the IC50 is under 0.01 µM in assay [1] (setting [3]); under 0.01 µM in assay [1] (setting [2]); over 10 µM at recombinant human MMP-1; 1 to 10 µM at recombinant human MMP-2; 0.1 to 1 µM on recombinant human MMP-3; over 10 µM on recombinant human MMP-7. Also, the IC50 on recombinant human MMP-8, on recombinant human MMP-9, at recombinant human MMP-10, at recombinant human MMP-13 and on recombinant human MMP-14 was 1 to 10 µM in each case.

In the case of `Cc1cccc(COc2ccc(Sc3ccoc3C3(C(C)C)NC(=O)NC3=O)cc2)c1` (stereo not shown) [FC-12], in [1] (setting [2]), the IC50 is under 0.01 µM.

For the compound `COc1cc(COc2ccc(Sc3ccoc3C3NC(=O)NC3=O)cc2)ccn1` (stereo not shown) [FC-13], in assay [1] (setting [2]), the IC50 lay within 0.01 to 0.1 µM.

With `CCOc1cc(COc2ccc(Sc3ccoc3C3NC(=O)NC3=O)cc2)ccn1` (stereo not shown) [FC-14], the IC50 in assay [1] (setting [2]) was in the range of 0.01 to 0.1 µM.

On to `CC(C)COc1cc(COc2ccc(Sc3ccoc3C3NC(=O)NC3=O)cc2)ccn1` (stereo not shown) [FC-15], for which the IC50 in assay [1] (setting [2]) was in the range of 0.1 to 1 µM.

For the compound `CC(C)Oc1cc(COc2ccc(Sc3ccoc3C3NC(=O)NC3=O)cc2)ccn1` (stereo not shown) [FC-16], the IC50 in assay [1] (setting [2]) lay in the range of 0.1 to 1 µM.

As for `NC(=O)c1cccc(COc2ccc(Sc3ccoc3C3NC(=O)NC3=O)cc2)c1` (stereo not shown) [FC-17], the IC50 in [1] (setting [3]) is under 0.01 µM; in [1] (setting [2]), under 0.01 µM; at recombinant human MMP-1, over 10 µM; at recombinant human MMP-2 it was 0.1 to 1 µM; at recombinant human MMP-3 it was 0.1 to 1 µM; at recombinant human MMP-7 it was over 10 µM. Besides, the IC50 on recombinant human MMP-8 was 0.1 to 1 µM; on recombinant human MMP-9, 1 to 10 µM; on recombinant human MMP-10 it was 0.1 to 1 µM; at recombinant human MMP-13, 0.1 to 1 µM; at recombinant human MMP-14, 1 to 10 µM.

For `NC(=O)c1ccc(COc2ccc(Sc3ccoc3C3NC(=O)NC3=O)cc2)cc1` (stereo not shown) [FC-18], the IC50 in [1] (setting [2]) is 0.01 to 0.1 µM.

As for `CCOc1cccc(COc2ccc(Sc3ccoc3C3NC(=O)NC3=O)cc2)c1` (stereo not shown) [FC-20], the IC50 in assay [1] (setting [2]) lay in the range of 0.1 to 1 µM.

With `CC(C)Oc1cccc(COc2ccc(Sc3ccoc3C3NC(=O)NC3=O)cc2)c1` (stereo not shown) [FC-21], the IC50 in assay [1] (setting [2]) was 0.1 to 1 µM.

Take `CCCOc1cccc(COc2ccc(Sc3ccoc3C3NC(=O)NC3=O)cc2)c1` (stereo not shown) [FC-22]: the IC50 in assay [1] (setting [2]) is over 1 µM.

`O=C1NC(=O)C(c2occc2Sc2ccc(OCc3cccc(CO)c3)cc2)N1` (stereo not shown) [FC-23]: the half-maximal inhibitory concentration (IC50) in assay [1] (setting [3]) was under 0.01 µM; in assay [1] (setting [2]) it was under 0.01 µM; at recombinant human MMP-1 it was over 10 µM; at recombinant human MMP-2, 0.1 to 1 µM; on recombinant human MMP-3, 1 to 10 µM; at recombinant human MMP-7 it was over 10 µM. Besides, the IC50 on recombinant human MMP-8, at recombinant human MMP-9, at recombinant human MMP-10, on recombinant human MMP-13 and at recombinant human MMP-14 was 1 to 10 µM each time.

Regarding `O=C1NC(=O)C(c2occc2Sc2ccc(OCc3ccccc3CO)cc2)N1` (stereo not shown) [FC-24], in assay [1] (setting [2]), the IC50 was under 0.01 µM.

With `O=C1NC(=O)C(c2occc2Sc2ccc(OCc3ccc(CO)cc3)cc2)N1` (stereo not shown) [FC-25], the half-maximal inhibitory concentration (IC50) in assay [1] (setting [2]) was under 0.01 µM.

For `O=C1NC(=O)C(c2occc2Sc2ccc(OCc3cccc(O)c3)cc2)N1` (stereo not shown) [FC-26], in [1] (setting [2]), the IC50 is under 0.01 µM.

For the compound `Cc1cc(Sc2ccc(OCc3cccc(CO)c3)cc2)c(C2NC(=O)NC2=O)o1` (stereo not shown) [FC-27], the IC50 is under 0.01 µM in assay [1] (setting [3]); under 0.01 µM in [1] (setting [2]); over 10 µM on recombinant human MMP-1; 0.1 to 1 µM at recombinant human MMP-2; 0.1 to 1 µM on recombinant human MMP-3; over 10 µM at recombinant human MMP-7. Also, the IC50 is 0.1 to 1 µM at recombinant human MMP-8; 1 to 10 µM at recombinant human MMP-9; 0.1 to 1 µM on recombinant human MMP-10; 0.1 to 1 µM on recombinant human MMP-13; 1 to 10 µM at recombinant human MMP-14.

As for `Cc1cccc(COc2ccc(Sc3cc(C)oc3C3NC(=O)NC3=O)cc2)c1` (stereo not shown) [FC-28], the IC50 in [1] (setting [2]) lay within 0.01 to 0.1 µM.

Turning to `NC(=O)c1cc(COc2ccc(Sc3ccoc3C3NC(=O)NC3=O)cc2)ccn1` (stereo not shown) [FC-29], the 50% inhibitory concentration (IC50) in assay [1] (setting [2]) was in the range of 0.01 to 0.1 µM.

Take `CCC1(c2occc2Sc2ccc(OCc3ccnc(C)c3)cc2)NC(=O)NC1=O` (stereo not shown) [FC-32]: in [1] (setting [2]), the IC50 was under 0.01 µM.

Consider `Cc1cc(CN(C)c2ccc(Sc3ccoc3C3NC(=O)NC3=O)cc2)ccn1` (stereo not shown) [FC-33], for which, in [1] (setting [2]), the IC50 was over 1 µM.
